Reference: ChEMBL document CHEMBL1144261, “Synthesis of alkyne derivatives of a novel triazolopyrazine as A(2A) adenosine receptor antagonists” (Bioorg Med Chem Lett, 2005)

Key:
Adenosine receptor A2a = Adenosine receptor A2a (Rattus norvegicus, UniProt P30543); assay: Binding affinity towards Adenosine A2A receptor of rat brain tissues using [3H]ZM-241385 as radioligand
Adenosine receptor A1 = biological target: T1, Adenosine receptor A1 (Rattus norvegicus, UniProt P25099); assay: Binding affinity towards Adenosine A1 receptor of rat cerebral cortex using [3H]-DPCPX as radioligand
T1 sequence (P25099 whole entry): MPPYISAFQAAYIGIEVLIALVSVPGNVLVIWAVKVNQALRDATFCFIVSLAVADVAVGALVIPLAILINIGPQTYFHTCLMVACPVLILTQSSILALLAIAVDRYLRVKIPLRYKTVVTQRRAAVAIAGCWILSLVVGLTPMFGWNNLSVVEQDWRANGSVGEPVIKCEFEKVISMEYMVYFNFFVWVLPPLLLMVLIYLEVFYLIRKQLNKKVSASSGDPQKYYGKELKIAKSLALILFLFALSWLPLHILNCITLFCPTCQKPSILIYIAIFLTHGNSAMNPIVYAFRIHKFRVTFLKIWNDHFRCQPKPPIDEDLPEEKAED

Adenosine receptor A2a, sequence (P30543 whole entry): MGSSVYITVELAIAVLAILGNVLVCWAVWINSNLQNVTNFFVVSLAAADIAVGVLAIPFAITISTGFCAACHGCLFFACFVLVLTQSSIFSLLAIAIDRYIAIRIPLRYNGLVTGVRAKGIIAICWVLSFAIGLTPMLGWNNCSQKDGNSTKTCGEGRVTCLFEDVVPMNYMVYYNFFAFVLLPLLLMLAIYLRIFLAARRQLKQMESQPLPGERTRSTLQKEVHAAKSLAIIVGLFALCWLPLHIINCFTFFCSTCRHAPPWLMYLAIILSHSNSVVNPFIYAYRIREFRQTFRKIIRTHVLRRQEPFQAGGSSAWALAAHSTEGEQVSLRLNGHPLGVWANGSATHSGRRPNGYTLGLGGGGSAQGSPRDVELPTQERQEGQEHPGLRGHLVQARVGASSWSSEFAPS

Row | SMILES | Ki (Adenosine receptor A2a) [nM] | Ki (Adenosine receptor A1) [nM]
1 | Nc1nc(C#CCC2CCCCC2)cn2nc(-c3ccco3)nc12 | 280 | 680
2 | Nc1nc(C#CCOc2cccnc2)cn2nc(-c3ccco3)nc12 | 92 | 110
3 | Nc1nc(C#CC(O)C2(O)CCCC2)cn2nc(-c3ccco3)nc12 (centres undefined) | 30 | 72
4 | CC(C)C(O)(C#Cc1cn2nc(-c3ccco3)nc2c(N)n1)C(C)C | 7 | 8
5 | CCC(O)(C#Cc1cn2nc(-c3ccco3)nc2c(N)n1)CC | 9 | 33
6 | Nc1nc(C#CC(O)c2ccccc2)cn2nc(-c3ccco3)nc12 (centres undefined) | 340 | 2400
7 | Nc1nc(C#CC(O)(c2ccccc2)C(F)(F)F)cn2nc(-c3ccco3)nc12 (centres undefined) | 74 | 2200
8 | CC(O)(C#Cc1cn2nc(-c3ccco3)nc2c(N)n1)c1csc2ccccc12 (centres undefined) | 33 | 340
9 | CC(O)(C#Cc1cn2nc(-c3ccco3)nc2c(N)n1)c1ccc([N+]2=CC=NC2)cc1 (centres undefined) | 33 | 110
10 | Nc1nc(C#CC2(N)CCCCC2)cn2nc(-c3ccco3)nc12 | 210 | 35
11 | CC(O)(C#Cc1cn2nc(-c3ccco3)nc2c(N)n1)c1ccccc1 (centres undefined) | 12 | 41
12 | CC(C#Cc1cn2nc(-c3ccco3)nc2c(N)n1)OC(C)(C)C (centres undefined) | 37 | 96
13 | Nc1nc(C#CC(O)C2(O)CCC2)cn2nc(-c3ccco3)nc12 (centres undefined) | 12 | 2.5
14 | Nc1nc(C#CCOc2ccc(F)c(Cl)c2)cn2nc(-c3ccco3)nc12 | 310 | 4300
15 | Cn1nc(OCC#Cc2cn3nc(-c4ccco4)nc3c(N)n2)cc1C(F)(F)F | 89 | 1800
16 | CN(C)c1ccc(C(O)(C#Cc2cn3nc(-c4ccco4)nc3c(N)n2)C(F)(F)F)cc1 (centres undefined) | 1100 | 
17 | CC(O)(C#Cc1cn2nc(-c3ccco3)nc2c(N)n1)Cc1ccncc1 (centres undefined) | 1.1 | 100
18 | Nc1nc(C#Cc2ccc(F)cc2F)cn2nc(-c3ccco3)nc12 | > 1000 | 
19 | CC(O)(C#Cc1cn2nc(-c3ccco3)nc2c(N)n1)c1ccncc1 (centres undefined) | 25 | 170
20 | Nc1nc(C#CCO)cn2nc(-c3ccco3)nc12 | > 500 | > 500
21 | CC(O)(C#Cc1cn2nc(-c3ccco3)nc2c(N)n1)c1cccc(C(F)(F)F)c1F (centres undefined) | 1600 | 
22 | Nc1nc(C#CCOc2ccccc2)cn2nc(-c3ccco3)nc12 | 390 | 530
23 | CC(O)(C#Cc1cn2nc(-c3ccco3)nc2c(N)n1)c1ccc(O)cc1 (centres undefined) | 42 | 66
24 | Nc1nc(C#CC(O)c2csc3ccccc23)cn2nc(-c3ccco3)nc12 (centres undefined) | 260 | 73
25 | Nc1nc(C#CC(O)C2(O)CCCCC2)cn2nc(-c3ccco3)nc12 (centres undefined) | 7.3 | 11
26 | CC(C)CCC(C)(O)C#Cc1cn2nc(-c3ccco3)nc2c(N)n1 (centres undefined) | 3.7 | 24
